In patent publication US8178724B2, “Compounds for inhibition of 5-hydroxytryptamine and norepinephrine reuptake or for treatment of depression disorders, their preparation processes and uses thereof” (Shandong Luye Pharmaceutical Co., Ltd., priority 2005, dated 2012):

Columns and labels:
[1] = Beagle test of sustained release capsules (oral) versus intravenous administration; type: in vivo; settings: beagles, orally administrated sustained release capsule
Protocol: The blood samples were collected separately at 0.25, 0.5, 1, 2, 4, 6, 8, 12, 16 and 24 hours after drug administration.

human liver cells S9 = test: Metabolism in human liver cells S9 to form the active component compound III; type: in vitro ADME; settings: conversion to compound III, human liver S9, 1 mM NADPH, 37° C.
Source text: Then the mixture was quenched with concentrated perchloric acid. After the precipitated proteins was removed by centrifuge, the supernatant was adjusted with concentrated potassium phosphate until pH was 3, and centrifuged again. The supernatant was directly injected into HPLC and analyzed.

Row | SMILES | conversion into compound III in vivo [1] | Metabolic rate (%) of compounds in liver cells within 2 hours (human liver cells S9) [%]
1 | COc1ccc(C(=O)Oc2ccc(C(CN(C)C)C3(O)CCCCC3)cc2)cc1.O=C(O)CCC(=O)O (centres unmarked) [4-[2-dimethylamino-1-(1-hydroxycyclohexyl)-ethyl]phenyl 4-methoxybenzoate succinate] | quickly converted | 
2 | CN(C)CC(c1ccc(OC(=O)c2ccccc2)cc1)C1(O)CCCCC1 (centres unmarked) [Compound 2 of Example 1, 4-[2-dimethylamino-1-(1-hydroxycyclohexyl)-ethyl]phenyl Benzoate] |  | 96

Now from value to molecule:

Row | conversion into compound III in vivo [1] | Metabolic rate (%) of compounds in liver cells within 2 hours (human liver cells S9) [%] | SMILES
3 | quickly converted |  | CN(C)CC(c1ccc(OC(=O)c2ccccc2)cc1)C1(O)CCCCC1.Cl (centres unmarked) [4-[2-dimethylamino-1-(1-hydroxycyclohexyl)-ethyl]phenyl benzoate hydrochloride]
4 |  | 92 | COc1ccc(C(=O)Oc2ccc(C(CN(C)C)C3(O)CCCCC3)cc2)cc1 (centres unmarked) [Compound 3 of Example 1, 4-[2-dimethylamino-1-(1-hydroxycyclohexyl)-ethyl]phenyl 4-methoxybenzoate]
5 |  | 88 | CN(C)CC(c1ccc(OC(=O)c2ccc(F)cc2)cc1)C1(O)CCCCC1 (centres unmarked) [Compound 4 of Example 1, 4-[2-dimethylamino-1-(1-hydroxycyclohexyl)-ethyl]phenyl 4-fluorobenzoate]
